Legend:
[1] = test system: Caco-2-cell monolayer; test: TEER, cationic penetration promotor/anionic active ingredient mixtures (Example 18); format: cell-based
Protocol: TEER-Testing was performed analogous to example 12.
The following mixtures in HBSS-buffers were tested
Desmopressin acetate=Desmo,
EUDRAGIT® E Carbonate=E (s. description: carbonated amino(meth)acrylate copolymer)
Bowman Birk Inhibitor=BBI
Heparin: Low molecular weight heparin (LMW-Heparine); Fraxiparin™ (Nadroparin calcium); 0.6 ml ready to use syringe for subcutaneous injection (5700 IU anti-Xa/mg); Ch.B.: 3394-1; Glaxo Smith Kline

[2] = test system: Caco-2-cell monolayer; test: TEER, pure penetration promotor, Caco-2 cell monolayer (Example 17); format: cell-based; settings: positive control 0.1%
Protocol: The penetration promoter in the sense of the present invention may be defined by reducing the initial TEER-value of the buffer solution without penetration promotor (100%) to 50% or less, preferably 40% or less, preferably 30% or less, preferably 20% or less in the presence of the penetration promotor at a concentration of 1 mg/ml after 60 min measured in a Caco-2-cell monolayer culture as transport barrier.
TEER-Testing was performed analogous to example 12. EUDRAGIT® E acetate=EUDRAGIT® E dissolved in water by addition of acetic acid until clear solution was obtained; EUDRAGIT® E PO base=dispersion of EUDRAGIT® E PO (powder form of EUDRAGIT® E) in water (not dissolved); chitosan acetate=chitosan dissolved in water by addition of acetic acid until clear solution was obtained.

[3] = test system: Pancreatin; test: In-vitro pancreatic enzyme inhibition test, degradation of desmopressin acetate by pancreatin (Example 14); format: biochemical; settings: for desmopressin acetate remaining in presence of pancreatin: control solutions (positive control 1 mg/ml BBI final)
Protocol: In-Vitro Pancreatic Enzyme Inhibition Test of the Preparations of Examples 1, 4 and 5
Inhibition experiments were performed using a new study design considering the dissolution of the pellets.
80 mg of each formulation were stirred in 10 ml of HBSS pH 5.8 at the lowest stirring speed available. The stirring was stopped after 30 min and the suspensions allowed to settle down before an aliquot (2 ml) was drawn and mixed with 2 mL of a solution containing 80 μg·ml^−1 of Desmopressin acetate in HBSS buffer pH 6.5. The pH of the solutions was measured but not adjusted.
As a negative control 2 ml of HBSS buffer were mixed with 2 ml of a solution containing 80 μg·ml^−1 of Desmopressin acetate in HBSS buffer pH 6.5. The pH of the solutions was measured but not adjusted.
As a positive control a solution containing 4 mg of BBI per ml in HBSS was used. 2 ml of the solution were mixed with 2 ml of a solution containing 80 μg·ml^−1 of Desmopressin acetate in HBSS buffer pH 6.5. The pH of the solutions was measured but not adjusted.
200 μL of the prepared solutions were mixed with 200 μl of a Pancreatin solution (20 mg·ml^−1) and incubated for 1, 2 and 3 h at 37° C. Each experiment was performed in triplicate (three individually prepared solutions).
(Final concentrations in the positive control: 1 mg/ml BBI, 20 μg/ml desmopressin actuate and 10 mg/ml pancreatin)
For the 100% value 80 mg pellets were stirred in 10 ml HBSS pH 5.8 for 30 min and homogenized using an ultraturrax. The suspension was stirred for further 15 minutes and allowed to settle down.
The supernatant was collected and further diluted with Desmopressin acetate in HBSS buffer pH 6.5 as described above. The pH of the solutions was measured but not adjusted.
For the starting values (t0) the mixture was directly added to 400 μl of acetonitrile and diluted with 1200 μL of HBSS buffer pH 6.5. The solution were analysed by HPLC using a RP-18-column as a stationary phase and a water/acetonitrile-mixture (80:20) as eluent phase at a wavelength of 220 nm.

[4] = orally ingested; cited from earlier work
[5] = listed as buffer (baseline), mean of n = 3

desmopressin acetate remaining in presence of pancreatin ([3]; 0 min)	desmopressin acetate remaining in presence of pancreatin ([3]; 60 min)	desmopressin acetate remaining in presence of pancreatin ([3]; 120 min)	desmopressin acetate remaining in presence of pancreatin ([3]; 180 min)	Molecule	TEER in % of TEER in Medium during the test ([1]; 0 min)	TEER in % of TEER in Medium during the test ([1]; 15 min)	TEER in % of TEER in Medium during the test ([1]; 30 min)	TEER in % of TEER in Medium during the test ([1]; 60 min)	TEER in % of TEER in Medium during the test ([1]; 90 min)	TEER in % of TEER in Medium during the test ([1]; 120 min)	TEER in % of TEER in Medium during the test ([1]; 240 min)	TEER in % of TEER in Medium during the test [1, 5]	also measured
–	–	–	–	NC(=O)CC[C@@H]1NC(=O)[C@H](Cc2ccccc2)NC(=O)[C@H](Cc2ccc(O)cc2)NC(=O)CCSSC[C@@H](C(=O)N2CCC[C@H]2C(=O)N[C@H](CCCN=C(N)N)C(=O)NCC(N)=O)NC(=O)[C@H](CC(N)=O)NC1=O [Example 18c, Desmopressin acetate]	119%	111%	115%	111%	118%	119%	109%	123%	–
–	–	–	–	Nadroparin calcium [Example 18d]	110%	102%	106%	105%	112%	111%	104%	118%	–
–	–	–	–	CCCCCCCCCCCCOS(=O)(=O)[O-].[Na+] [Example 18h, Sodiumdodecylsufate]	22%	16%	16%	12%	16%	12%	13%	123%	Mean-TEER ([2]; 5 min): 12%; Mean-TEER ([2]; 60 min): 4%; Mean-TEER ([2]; 120 min): 10%; Mean-TEER ([2]; 180 min): 12%; Mean-TEER ([2]; 240 min): 15%; Mean-TEER ([2]; HBSS (0 min)): 100%
100.00%	61.79%	50.51%	33.54%	NC(=O)CC[C@@H]1NC(=O)[C@H](Cc2ccccc2)NC(=O)[C@H](Cc2ccc(O)cc2)NC(=O)CCSSC[C@@H](C(=O)N2CCC[C@H]2C(=O)N[C@H](CCCN=C(N)N)C(=O)NCC(N)=O)NC(=O)[C@H](CC(N)=O)NC1=O [Desmopressin acetate]	–	–	–	–	–	–	–	–	recovery of desmopressin ([3]; in the absence of the BBI, time not stated): more than 60%
100.00%	98.82%	94.48%	85.25%	BBI: Bowman-Birk inhibitor from soy bean source (Sigma Aldrich); trypsin and chymotrypsin inhibitor (protein, UniProt P01055 40-110, looked up) Bowman-Birk type proteinase …: DDESSKPCCDQCACTKSNPPQCRCSDMRLNSCHSACKSCICALSYPAQCFCVDITDFCYEPCKPSEDDKEN	–	–	–	–	–	–	–	–	ingested bowman birk inhibitor absorbed in to the bloodstream [4]: Approximately 50%; inhibition of degradation of desmopressin acetate by pancreatin (in words) ([3]; n=3): remarkably reduce the degradation

Source: patent publication US8765152B2, “Pharmaceutical or neutraceutical formulation” (Evonik Roehm GmbH, priority 2010, dated 2014)
